Values of other authors in publication PMC10555500, “Evaluation of the Antiproliferative Properties of CpRu Complexes Containing N-Methylated Triazaphosphaadamantane Derivatives” (Bioinorganic Chemistry and Applications, 2023).

Tests used:
Parameters in all cases: method as in doi:10.1021/acsomega.8b02849, PMID 31241925
Settings in all cases: positive control; ref [44], [45]; cited from earlier work
[1] = tested on: MDA-MB-231 breast cancer cells
[2] = tested on: MCF-7 breast cancer cells
[3] = tested on: normal human fibroblasts (HDF)

For `N.N.[Cl][Pt][Cl]` [Cisplatin, cis-[PtCl2(NH3)2]], the IC50 [1] is listed as over 100 µM, the IC50 [2] is listed as 38 ± 1.4 µM and the IC50 [3] is listed as about 100 µM.
